Test results published in ChEMBL document CHEMBL1127812, “Molecular modeling studies on ligand binding to sialidase from influenza virus and the mechanism of catalysis” (J Med Chem, 1994).

Biological target: Neuraminidase (Influenza A virus (A/Puerto Rico/8/1934(H1N1)), UniProt P03468)
Sequence (P03468 whole entry): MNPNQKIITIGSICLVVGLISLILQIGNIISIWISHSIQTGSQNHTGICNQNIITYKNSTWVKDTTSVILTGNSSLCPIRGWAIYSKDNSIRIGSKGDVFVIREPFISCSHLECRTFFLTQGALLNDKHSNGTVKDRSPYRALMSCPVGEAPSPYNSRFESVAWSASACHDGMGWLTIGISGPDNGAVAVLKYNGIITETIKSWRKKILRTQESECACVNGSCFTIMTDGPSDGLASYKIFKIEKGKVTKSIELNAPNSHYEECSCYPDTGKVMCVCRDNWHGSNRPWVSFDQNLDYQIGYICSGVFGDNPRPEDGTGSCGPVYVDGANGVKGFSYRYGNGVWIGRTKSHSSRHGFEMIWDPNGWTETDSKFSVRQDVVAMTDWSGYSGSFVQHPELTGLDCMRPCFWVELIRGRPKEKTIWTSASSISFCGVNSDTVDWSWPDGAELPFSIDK
Description: inhibition of Influenza A Sialidase

Molecule `CC(=O)NC1C(N)C=C(C(=O)O)OC1[C@H](O)[C@H](O)CO` (stereo partly specified) has a Ki of 40 nM.
